Data taken from PMC4503722, “Novel Phenotypic Outcomes Identified for a Public Collection of Approved Drugs from a Publicly Accessible Panel of Assays” (PLoS ONE, 2015).
Where two headings read alike, the source gives them in different places.

Columns and labels:
HT-29 = assay: cells; format: cell-based; conditions: for IC50: read-out: Basal_Viability ATP HT-29 summarized IC50
DLD-1 = assay: cells; format: cell-based; conditions: for IC50: read-out: Basal_Viability ATP DLD-1 summarized IC50
Colo320 = assay: cells; format: cell-based; conditions: for IC50: read-out: Basal_Viability ATP Colo 320 summarized IC50
SW480 = assay: cells; format: cell-based; conditions: for IC50: read-out: Basal_Viability ATP SW480 summarized IC50
SNU-C1 = assay: cells; format: cell-based; conditions: for IC50: read-out: Basal_Viability ATP SNU-C1 summarized IC50
RKO = assay: cells; format: cell-based; conditions: assay number 29
HCT116 = assay: cells; format: cell-based; conditions: for IC50: read-out: Basal_Viability ATP HCT116 summarized IC50
[1] = test system: ECFC/ADSC co-culture cell nuclei number; conditions: read-out: VEGF_ADSC\ECFC Angio Hoechst NucArea summarized IC50
[2] = test system: endothelial tube formation in co-cultures of ECFCs and ADSCs treated with VEGF; assay: cells; format: cell-based, human; conditions: read-out: VEGF_ADSC\ECFC Angio CD31 TubeArea summarized IC50
HeLa cells = assay: cells; format: cell-based;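 on Hela CellCycMod PI 4N summarized IC50: value tracks stimulation of 4N DNA content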

SMILES | Basal_Viability ATP HT-29 IC50/EC50 (HT-29; assay number 28, basal) | Basal_Viability ATP DLD-1 IC50/EC50 (DLD-1; assay number 23, basal) | Basal_Viability ATP Colo 320 IC50/EC50 (Colo320; assay number 27, basal) | Basal_Viability ATP SW480 IC50/EC50 (SW480; assay number 24, basal) | Basal_Viability ATP SNU-C1 IC50/EC50 (SNU-C1; assay number 30, basal) | Basal_Viability ATP RKO IC50/EC50 (RKO; basal) | Basal_Viability ATP HCT116 IC50/EC50 (HCT116; assay number 25, basal) | other results
CN(CCOc1ccc(CC2SC(=O)NC2=O)cc1)c1ccccn1 (stereo not shown) [NCGC00095124-08] | > 20 µM | > 20 µM | > 20 µM | > 20 µM | 8.6851 µM | > 20 µM | > 20 µM | –
OC[C@@H](O)[C@H](O)[C@H](O)[C@@H](O)CO [NCGC00166072-02] | > 20 µM | > 20 µM | > 20 µM | > 20 µM | > 20 µM | > 20 µM | > 20 µM | –
Cc1ccc(Cl)c(Nc2ccccc2C(=O)[O-])c1Cl.[Na+] [NCGC00023217-08] | > 20 µM | 15.1129 µM | > 20 µM | > 20 µM | > 20 µM | > 20 µM | > 20 µM | –
O=c1c(C2CC(c3ccc(-c4ccc(Br)cc4)cc3)Cc3ccccc32)c(O)sc2ccccc12 (stereo not shown) [NCGC00262959-01] | – | – | – | – | – | – | 0.4855 µM | Basal_Viability ATP HT-29 IC50/EC50 (HT-29; assay number 28): 0.4364 µM; Basal_Viability ATP DLD-1 IC50/EC50 (DLD-1; assay number 23): 0.239 µM; Basal_Viability ATP Colo 320 IC50/EC50 (Colo320; assay number 27): 0.7354 µM; Basal_Viability ATP SW480 IC50/EC50 (SW480; assay number 24): 0.187 µM; Basal_Viability ATP SNU-C1 IC50/EC50 (SNU-C1; assay number 30): 0.2516 µM; Basal_Viability ATP RKO IC50/EC50 (RKO): 0.5378 µM
CCN(CCO)CCCC(C)Nc1ccnc2cc(Cl)ccc12.O=S(=O)(O)O (stereo not shown) [NCGC00159483-04] | > 20 µM | > 20 µM | > 20 µM | > 20 µM | > 20 µM | > 20 µM | > 20 µM | –
CCn1cc(C(=O)O)c(=O)c2cnc(N3CCNCC3)nc21 [NCGC00016866-11] | > 20 µM | > 20 µM | > 20 µM | > 20 µM | > 20 µM | > 20 µM | > 20 µM | –
Oc1c(I)cc(Cl)c2cccnc12 [NCGC00016391-13] | – | – | – | – | – | – | – | IC50 (HT-29): 18.6 µM; IC50 (DLD-1): 0.345 µM; IC50 (Colo320): 0.586 µM; IC50 (SW480): 0.441 µM; IC50 [1]: > 10 µM; IC50 (SNU-C1): 0.475 µM; IC50 [2]: > 10 µM; IC50 (HeLa cells; read-out: Hela CellCycMod PI 2N summarized IC50): > 10 µM; IC50 (HeLa cells; read-out: Hela CellCycMod PI 4N summarized IC50): > 10 µM; IC50 (HeLa cells; read-out: Hela CellCycMod PI Cell Number summarized IC50): > 10 µM; IC50 (HeLa cells; read-out: Hela CellCycMod PI MI summarized IC50): > 10 µM; IC50 (HCT116): 0.392 µM
CCc1cccc2c3c([nH]c12)C(CC)(CC(=O)O)OCC3 (stereo not shown) [NCGC00015399-16] | > 20 µM | > 20 µM | > 20 µM | > 20 µM | > 20 µM | > 20 µM | > 20 µM | –
O.O=C1[O][Bi][O]c2ccccc21 [NCGC00166299-03] | > 20 µM | > 20 µM | > 20 µM | > 20 µM | 15.3838 µM | > 20 µM | > 20 µM | –
NC(=O)N/N=C/c1ccc([N+](=O)[O-])o1 [NCGC00090686-11] | – | – | – | – | – | – | – | IC50 (HT-29; assay number 28, basal): > 20 µM; IC50 (DLD-1; assay number 23, basal): > 20 µM; IC50 (Colo320; assay number 27, basal): > 20 µM; IC50 (SW480; assay number 24, basal): > 20 µM; IC50 (SNU-C1; assay number 30, basal): > 20 µM; IC50 (RKO; basal, read-out: Basal_Viability ATP RKO summarized IC50): > 20 µM; IC50 (HCT116; assay number 25, basal): > 20 µM
CC=CC1=C(C(=O)O)N2C(=O)[C@@H](NC(=O)[C@H](N)c3ccc(O)cc3)[C@H]2SC1 [NCGC00159513-03] | – | – | – | – | – | – | > 20 µM | Basal_Viability ATP HT-29 IC50/EC50 (HT-29; assay number 28): > 20 µM; Basal_Viability ATP DLD-1 IC50/EC50 (DLD-1; assay number 23): > 20 µM; Basal_Viability ATP Colo 320 IC50/EC50 (Colo320; assay number 27): > 20 µM; Basal_Viability ATP SW480 IC50/EC50 (SW480; assay number 24): > 20 µM; Basal_Viability ATP SNU-C1 IC50/EC50 (SNU-C1; assay number 30): > 20 µM; Basal_Viability ATP RKO IC50/EC50 (RKO): > 20 µM
